Source: patent publication US6906093B2, “Indolinone combinatorial libraries and related products and methods for the treatment of disease” (Sugen, Inc., priority 1995, dated 2005)
Like-named read-outs stand apart in the source and are kept apart here.

Columns and labels:
FLK-1 receptor = target: T1, FLK-1 receptor (Mus musculus, UniProt P35918); assay: FLK-1 ELISA in FLK-1/NIH3T3 cells; format: cell-based
T1 construct: expressed in transfected cells; host or cells: NIH3T3 C7 #3

HUV-EC-C cells [1] = assay: HUV-EC-C assay, a-FGF (ECGF)-induced [3H]thymidine incorporation; format: cell-based, human; conditions: a-FGF-stimulated HUV-EC cells, read-out: Mitogenesis in Endothelial Cells, [3H] Thymidine Incorporation, HUV-EC Assay, a-FGF
Description: (§1) Repeat the wash two more times with D-PBS, resuspend the cells in about 1 ml assay medium/15 cm^2 of tissue culture flask.
(§2) Add cells to 96-well flat-bottom plates at 100 μl/well or 0.8-1.0×10^4 cells/well; incubate ˜24 h at 37° C., 5% CO2.
(§3) Use the same assay medium as mentioned in day 0, step 2 above. Titrations are made by adding 90 μl/well of drug at 200 μM (4× the final well concentration) to the top well of a particular plate column. Since the stock drug concentration-is usually 20 mM in DMSO, the 200 μM drug concentration contains 2% DMSO.
(§4) Therefore, diluent made up to 2% DMSO in assay medium (F12K+0.5% fetal bovine serum) is used as diluent for the drug titrations in order to dilute the drug but keep the DMSO concentration constant. Add this diluent to the remaining wells in the column at 60 μl/well. Take 60 μl from the 120 μl of 200 μM drug dilution in the top well of the column and mix with the 60 μl in the second well of the column. Take 60 μl from this well and mix with the 60 μl in the third well of the column, and so on until two-fold titrations-are completed. When the next-to-the-last well is mixed, take 60 μl of the 120 μl in this well and discard it. Leave the last well with 60 μl of DMSO/media diluent as a non-drug-containing control. […] 9 columns of titrated drug, enough for triplicate wells each for 1) VEGF (obtained from Pepro Tech Inc., catalogue no. 100-200, 2) endothelial cell growth factor (ECGF) (also known as acidic fibroblast growth factor, or aFGF) (obtained from Boehringer Mannheim Biochemica, catalogue no. […] ECGF comes as a preparation with sodium heparin.
(§5) Transfer 50 μl/well of the drug dilutions to the 96-well assay plates containing the 0.8-1.0×10^4 cells/100 μl/well of the HUV-EC-C cells from day 0 and incubate ˜2 h at 37° C., 5% CO2.
(§6) In triplicate, add 50 μl/well of 80 μg/ml VEGF, 20 ng/ml ECGF, or media control to each drug condition. As with the drugs, the growth factor concentrations are 4× the desired final concentration. Use the assay media from day 0 step 2 to make the concentrations of growth factors.
Freeze plates overnight at −20° C.

HUV-EC-C cells [2] = assay: HUV-EC-C assay, VEGF-induced [3H]thymidine incorporation; format: cell-based, human; conditions: VEGF-stimulated HUV-EC cells, read-out: Mitogenesis in Endothelial Cells, [3H] Thymidine Incorporation, HUV-EC Assay, VEGF
Description: as §1, §2, §3, §4, §5, §6
Freeze plates overnight at −20° C.

EGFR = target: T2, EGFR (Homo sapiens, UniProt P00533); assay: EGF-Induced BrdU Incorporation Assay in 3T3/EGFR cells; format: cell-based; conditions: EGF ligand; read-out: Mitogenesis in 3T3/EGFR Cells, BrdU Incorporation, EGFR EGF Ligand IC50
T2 construct: expressed in transfected cells; host or cells: NIH 3T3/C7 (3T3/EGFRc7)
T2 sequence (P00533 25-1210): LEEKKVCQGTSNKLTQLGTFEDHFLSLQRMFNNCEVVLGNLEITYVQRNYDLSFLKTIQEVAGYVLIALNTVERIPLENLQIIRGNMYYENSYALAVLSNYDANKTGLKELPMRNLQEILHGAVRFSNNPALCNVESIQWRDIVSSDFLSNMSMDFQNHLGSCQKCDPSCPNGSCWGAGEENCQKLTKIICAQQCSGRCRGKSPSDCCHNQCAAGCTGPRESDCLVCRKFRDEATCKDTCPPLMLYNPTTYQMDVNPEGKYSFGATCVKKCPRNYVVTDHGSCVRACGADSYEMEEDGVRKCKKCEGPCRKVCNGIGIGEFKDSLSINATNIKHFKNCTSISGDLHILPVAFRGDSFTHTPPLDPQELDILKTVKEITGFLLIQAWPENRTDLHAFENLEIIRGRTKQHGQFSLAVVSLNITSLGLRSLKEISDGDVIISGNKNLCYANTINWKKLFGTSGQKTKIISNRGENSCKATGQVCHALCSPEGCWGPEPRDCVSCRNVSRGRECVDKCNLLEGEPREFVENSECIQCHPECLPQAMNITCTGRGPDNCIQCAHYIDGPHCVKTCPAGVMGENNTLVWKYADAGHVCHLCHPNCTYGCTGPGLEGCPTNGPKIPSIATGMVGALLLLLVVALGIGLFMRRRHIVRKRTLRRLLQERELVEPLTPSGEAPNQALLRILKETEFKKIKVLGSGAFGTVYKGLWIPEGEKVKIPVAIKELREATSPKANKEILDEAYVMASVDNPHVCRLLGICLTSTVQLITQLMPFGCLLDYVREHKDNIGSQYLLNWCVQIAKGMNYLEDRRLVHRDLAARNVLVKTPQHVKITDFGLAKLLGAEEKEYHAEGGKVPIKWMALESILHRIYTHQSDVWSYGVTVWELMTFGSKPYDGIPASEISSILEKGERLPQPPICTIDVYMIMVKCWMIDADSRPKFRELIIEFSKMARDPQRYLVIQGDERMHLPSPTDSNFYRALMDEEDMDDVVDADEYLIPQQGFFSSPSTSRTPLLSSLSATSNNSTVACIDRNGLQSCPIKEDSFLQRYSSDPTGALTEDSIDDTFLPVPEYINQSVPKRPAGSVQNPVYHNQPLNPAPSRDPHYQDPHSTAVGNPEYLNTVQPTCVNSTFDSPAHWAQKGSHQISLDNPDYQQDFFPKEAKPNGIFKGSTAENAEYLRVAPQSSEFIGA
Description: Assay 2: EGF-Induced BrdU Incorporation Assay
Protocol • (1) 3T3 engineered cell line: 3T3/EGFRc7 • (2) Cells are seeded at 8000 cells/well in 10% CS, 2 mM Gln in DMEM, in a 96 well plate. […] The negative control wells receive serum free DMEM with 0.1% BSA only; the positive control cells receive the ligand (EGF) but no test compound. […] FixDenat solution is added (50 μl/well) and the plates are incubated at room temperature for 45 minutes on a plate shaker. • (7) The FixDenat solution is thoroughly removed by decanting and tapping the inverted plate on a paper towel. Milk is added (5% dehydrated milk in PBS, 200 μl/well) as a blocking solution and the plate is incubated for 30 minutes at room temperature on a plate shaker. • (8) The blocking solution is removed by decanting and the wells are washed once with PBS. Anti-BrdU-POD solution (1:100 dilution in PBS, 1% BSA) is added (100 μl/well) and the plate is incubated for 90 minutes at room temperature on a plate shaker. • (9) The antibody conjugate is thoroughly removed by decanting and rinsing the wells 5 times with PBS, and the plate is dried by inverting and tapping on a paper towel. • (10) TMB substrate solution is added (100 μl/well) and incubated for 20 minutes at room temperature on a plate shaker until color development is sufficient for photometric detection. • (11) The absorbance of the samples are measured at 410 nm (in “dual wavelength” mode with a filter reading at 490 nm, as a reference wavelength) on a Dynatech ELISA plate reader.

[3] = ELISA, FLK-1/NIH3T3 cells, VEGF stimulated

T1 sequence (P35918 20-1345): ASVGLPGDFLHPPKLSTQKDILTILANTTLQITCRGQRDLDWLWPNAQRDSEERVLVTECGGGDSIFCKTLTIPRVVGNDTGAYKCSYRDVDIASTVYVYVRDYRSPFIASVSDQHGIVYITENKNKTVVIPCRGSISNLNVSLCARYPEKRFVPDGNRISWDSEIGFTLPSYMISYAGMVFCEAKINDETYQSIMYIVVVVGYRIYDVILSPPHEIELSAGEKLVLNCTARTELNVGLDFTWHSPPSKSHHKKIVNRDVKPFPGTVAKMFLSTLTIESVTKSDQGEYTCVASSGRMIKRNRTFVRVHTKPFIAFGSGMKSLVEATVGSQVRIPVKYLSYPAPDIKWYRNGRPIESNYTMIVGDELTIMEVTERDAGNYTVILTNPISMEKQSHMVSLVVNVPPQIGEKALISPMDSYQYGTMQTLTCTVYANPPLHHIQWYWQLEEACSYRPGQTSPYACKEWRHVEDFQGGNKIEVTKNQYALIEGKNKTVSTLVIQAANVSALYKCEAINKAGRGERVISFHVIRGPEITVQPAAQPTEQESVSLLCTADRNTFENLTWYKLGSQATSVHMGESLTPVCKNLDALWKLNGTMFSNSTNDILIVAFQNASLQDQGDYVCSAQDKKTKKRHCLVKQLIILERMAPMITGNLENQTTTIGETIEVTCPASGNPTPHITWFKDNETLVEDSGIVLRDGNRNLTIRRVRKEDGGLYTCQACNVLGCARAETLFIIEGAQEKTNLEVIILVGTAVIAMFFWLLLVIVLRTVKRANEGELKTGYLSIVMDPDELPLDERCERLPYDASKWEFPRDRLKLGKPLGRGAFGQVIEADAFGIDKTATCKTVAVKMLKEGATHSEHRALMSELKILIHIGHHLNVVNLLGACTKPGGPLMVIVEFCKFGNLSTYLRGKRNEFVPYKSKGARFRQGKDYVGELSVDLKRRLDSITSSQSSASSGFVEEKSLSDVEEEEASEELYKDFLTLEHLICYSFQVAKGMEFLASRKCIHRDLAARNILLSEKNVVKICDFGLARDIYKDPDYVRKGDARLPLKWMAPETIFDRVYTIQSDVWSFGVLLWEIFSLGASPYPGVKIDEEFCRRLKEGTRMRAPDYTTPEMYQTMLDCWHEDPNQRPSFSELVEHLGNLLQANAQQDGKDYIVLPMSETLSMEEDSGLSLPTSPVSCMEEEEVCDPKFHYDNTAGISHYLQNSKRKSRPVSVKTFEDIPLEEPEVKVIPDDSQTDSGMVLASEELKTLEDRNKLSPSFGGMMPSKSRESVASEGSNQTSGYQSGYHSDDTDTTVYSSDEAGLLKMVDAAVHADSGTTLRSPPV

“3-[(2-Sulphonylfuran-5-yl)methylene]-2-indolinone sodium salt [SU5428]” was tested, and the IC50 (FLK-1 receptor) was 8.6 µM.
For CN(C)c1ccc(C=C2C(=O)Nc3ccccc32)cc1 [SU4312, 3-(4-Dimethylaminobenzylidenyl)-2-indolinone], the IC50 (FLK-1 receptor; [3]) was 0.8 µM.
In the case of COc1ccc(OC)c(C=C2C(=O)Nc3ccccc32)c1 [SU4793, 3-(2,5-Dimethoxybenzylidenyl)-2-indolinone], the IC50 (FLK-1 receptor; [3]) is reported as 4.2 µM.
For COc1cccc(C=C2C(=O)Nc3ccccc32)c1OC [SU4794, 3-(2,3-dimethoxybenzylidenyl)-2-indolinone], the IC50 (FLK-1 receptor; [3]) was 11.8 µM.
COc1ccc(Br)cc1C=C1C(=O)Nc2ccccc21 [SU4796, 3-(3-bromo-6-methoxybenzylidenyl)-2-indolinone] was tested, and the IC50 (HUV-EC-C cells [1]) was 35.8 µM and the IC50 (HUV-EC-C cells [2]) was 30700 nM.
For O=C1Nc2ccccc2C1=Cc1ccco1 [SU4798, 3-[(furan-2-yl)methylene]-2-indolinone], the IC50 (FLK-1 receptor; [3]) was 28.8 µM.
In the case of CC(=O)Nc1ccc(C=C2C(=O)Nc3ccccc32)cc1 [SU4799, 3-(4-acetamidobenzylidenyl)-2-indolinone], the IC50 (FLK-1 receptor; [3]) is reported as 9 µM.
O=C1Nc2ccccc2C1=Cc1ccc(O)cc1Cl [SU4932, 3-(2-chloro-4-hydroxybenzylidenyl)-2-indolinone] showed an IC50 (FLK-1 receptor; [3]) of 2.2 µM.
With CC(=O)Nc1ccc(C=C2C(=O)Nc3ccccc32)cc1 [SU4944, 3-(4-Acetylaminobenzylidenyl)-2-indolinone] the IC50 (FLK-1 receptor; [3]) was 8.5 µM.
Work on COc1ccccc1C=C1C(=O)Nc2ccccc21 [SU4949, 3-(2-Methoxybenzylidenyl)-2-indolinone] yielded an IC50 (HUV-EC-C cells [1]) of 3.7 µM and an IC50 (HUV-EC-C cells [2]) of 3400 nM.
For CN(C)c1ccc(C=C2C(=O)N(C)c3ccccc32)cc1 [SU4952, 3-(4-Dimethylaminobenzylidenyl)-1-methyl-2-indolinone], the IC50 (FLK-1 receptor; [3]) was 22.6 µM.
For CN(C)c1ccc(C=C2C(=O)Nc3ccc(Cl)cc32)cc1 [SU4967, 5-Chloro-3-(4-dimethylaminobenzylidenyl)-2-indolinone], the IC50 (EGFR) was 60 µM and the IC50 (FLK-1 receptor; [3]) was 11.2 µM.
In the case of O=C1Nc2ccc(Cl)cc2C1=Cc1ccc(Br)cc1 [SU4972, 3-(4-Bromobenzylidenyl)-5-chloro-2-indolinone], the IC50 (HUV-EC-C cells [1]) is reported as 1.4 µM.
Work on CCCCN(CCCC)c1ccc(C=C2C(=O)Nc3ccccc32)cc1 [SU4979, 3-(4-Di-n-butylaminobenzylidenyl)-2-indolinone] yielded an IC50 (FLK-1 receptor; [3]) of 20.9 µM.
Work on O=C1Nc2ccccc2C1=Cc1ccc(N2CCOCC2)cc1 [SU4981, 3-[4-(Morpholin-4-yl)benzylidenyl]-2-indolinone] yielded an IC50 (EGFR) of 20 µM and an IC50 (FLK-1 receptor; [3]) of 2.1 µM.
For O=C1Nc2ccc(Cl)cc2C1=Cc1ccc(N2CCOCC2)cc1 [SU4983, 5-Chloro-3-(4-(morpholine-4-yl)benzylidenyl)-2-indolinone], the IC50 (FLK-1 receptor; [3]) was 4.1 µM.
O=C1Nc2ccccc2C1=Cc1ccc(Cl)c(Cl)c1 [SU5201, 3-(3,4-Dichlorobenzylidenyl)-2-indolinone] gave an IC50 (HUV-EC-C cells [1]) of 2.3 µM and an IC50 (HUV-EC-C cells [2]) of 2500 nM.
In the case of CCOc1ccccc1C=C1C(=O)Nc2ccccc21 [SU5204, 3-(2-Ethoxybenzylidenyl]-2-indolinone], the IC50 (FLK-1 receptor; [3]) is reported as 4 µM.
For O=C1Nc2ccccc2C1=Cc1ccc(F)cc1 [SU5205, 3-(4-Fluorobenzylidenyl)-2-indolinone], the IC50 (FLK-1 receptor; [3]) was 9.6 µM.
O=C1Nc2ccccc2C1=Cc1cccs1 [SU5208, 3-[(Thien-2-yl)methylene]-2-indolinone] was tested, and the IC50 (FLK-1 receptor; [3]) was 4.7 µM.
In the case of O=C1Nc2ccccc2C1=Cc1ccc(-c2cc(C(F)(F)F)cc(C(F)(F)F)c2)o1 [SU5217], the IC50 (HUV-EC-C cells [1]) is reported as 10.5 µM and the IC50 (HUV-EC-C cells [2]) is reported as 9600 nM.
With CN(C)c1c(C=C2C(=O)Nc3ccccc32)cc(C=C2C(=O)Nc3ccccc32)c(N(C)C)c1C#N [SU5218, 2,6-Di-(dimethylamino)-3,5-di-[(indolin-2-one-3-ylidenyl)methyl]-phenylcyanide] the IC50 (HUV-EC-C cells [1]; Homo sapiens, HUVEC) was 2.7 µM, the IC50 (HUV-EC-C cells [2]; Homo sapiens, HUVEC) was 2400 nM and the IC50 (FLK-1 receptor; [3]) was 6.4 µM.
Cc1csc(C=C2C(=O)Nc3ccccc32)c1 [SU5401, 3-[(4-Methylthien-2-yl)methylene]-2-indolinone] showed an IC50 (FLK-1 receptor; [3]) of 2.9 µM.
In the case of Cc1c(CCC(=O)O)c[nH]c1C=C1C(=O)Nc2ccccc21 [SU5402, 3-[(3-(2-carboxyethyl)-4-methylpyrrol-5-yl)methylene]-2-indolinone], the IC50 (FLK-1 receptor; [3]) is reported as 0.4 µM.
Cc1[nH]c(C=C2C(=O)Nc3ccccc32)c(Br)c1Br [SU5403, 3-[(3,4-Dibromo-5-methylpyrrol-2-yl)methylene]-2-indolinone] was tested, and the IC50 (FLK-1 receptor; [3]) was 1.8 µM.
Cc1cc[nH]c1C=C1C(=O)Nc2ccccc21 [SU5404, 3-[(3-Methylpyrrol-2-yl)methylene]-2-indolinone] was tested, and the IC50 (FLK-1 receptor; [3]) was 0.24 µM.
For Cc1c(C=O)[nH]c(C=C2C(=O)Nc3ccccc32)c1C [SU5405, 3-[(3,4-Dimethyl-2-formylpyrrole-5-yl)methylene)-2-indolinone], the IC50 (FLK-1 receptor; [3]) was 23.8 µM.
Molecule Cc1c[nH]c(C=C2C(=O)Nc3ccccc32)c1C [SU5406, 3-[(3,4-Dimethylpyrrol-2-yl)methylene]-2-indolinone] has an IC50 (FLK-1 receptor; [3]) of 0.17 µM.
COC(=O)CCc1c(C)c[nH]c1C=C1C(=O)Nc2ccccc21 [SU5407, 3-{[4-(2-methoxycarbonylethyl)-3-methylpyrrol-5-yl]methylene}-2-indolinone] showed an IC50 (EGFR) of 100 µM and an IC50 (FLK-1 receptor; [3]) of 1.1 µM.
Molecule CCOC(=O)c1c(C)[nH]c(C=C2C(=O)Nc3ccccc32)c1C [SU5408, 3-[(2,4-Dimethyl-3-ethoxycarbonylpyrrol-5-yl)methylene]-2-indolinone] has an IC50 (FLK-1 receptor; [3]) of 0.07 µM.
O=C1Nc2ccccc2C1=Cc1ccc(I)o1 [SU5409] showed an IC50 (HUV-EC-C cells [2]) of 26000 nM.
Work on O=C1Nc2ccccc2C1=Cc1sccc1Br [SU5418, 3-[(3-Bromothiene-2-yl)methylene]-2-indolinone] yielded an IC50 (FLK-1 receptor; [3]) of 15.4 µM.
CSc1ccc(C=C2C(=O)Nc3ccccc32)s1 [SU5419, 3-[(2-Methylmercaptothien-5-yl)methylene]-2-indolinone] was tested, and the IC50 (FLK-1 receptor; [3]) was 2.3 µM.
With Cc1cc(C=C2C(=O)Nc3ccccc32)oc1C [SU5421, 3-[(2,3-Dimethylfuran-5-yl)methylene]-2-indolinone] the IC50 (FLK-1 receptor; [3]) was 4.6 µM.
Cc1ccc(C=C2C(=O)Nc3ccccc32)s1 [SU5424, 3-[(2-Methylthien-5-yl)methylene]-2-indolinone] was tested, and the IC50 (FLK-1 receptor; [3]) was 2.4 µM.
O=C1Nc2ccccc2C1=Cc1ccc(Br)s1 [SU5425, 3-[(2-Bromothiene-5-yl)methylene]-2-indolinone] gave an IC50 (FLK-1 receptor; [3]) of 51.4 µM.
Cc1ccsc1C=C1C(=O)Nc2ccccc21 [SU5427, 3-[(3-Methylthien-2-yl)methylene]-2-indolinone] showed an IC50 (FLK-1 receptor; [3]) of 4.5 µM.
Work on Cc1ccc(C=C2C(=O)Nc3ccccc32)o1 [SU5430, 3-[(2-Methylfuran-5-yl)methylene]-2-indolinone] yielded an IC50 (FLK-1 receptor; [3]) of 73.4 µM.
In the case of CCc1ccc(C=C2C(=O)Nc3ccccc32)o1 [SU5431], the IC50 (FLK-1 receptor; [3]) is reported as 41.2 µM.
In the case of O=C1Nc2ccccc2C1=Cc1ccc([N+](=O)[O-])o1 [SU5432, 3-[(2-Nitrofuran-5-yl)methylene]-2-indolinone], the IC50 (FLK-1 receptor; [3]) is reported as 22.8 µM.
CCc1c(C=C2C(=O)Nc3ccccc32)[nH]c(C)c1C [SU5453, 3-[(4,5-Dimethyl-3-ethylpyrrol-2-yl)methylene]-2-indolinone] gave an IC50 (FLK-1 receptor; [3]) of 0.14 µM.
With CCc1c(C=C2C(=O)Nc3ccccc32)[nH]c(C(=O)O)c1C [SU5455, 3-[(5-Carboxy-3-ethyl-4-methylpyrrol-2-yl)methylene]-2-indolinone] the IC50 (FLK-1 receptor; [3]) was 36.2 µM.
Molecule O=C1Nc2ccccc2C1=Cc1cccn1-c1ccc(Cl)cc1 [SU5462] has an IC50 (HUV-EC-C cells [1]) of 0.8 µM and an IC50 (HUV-EC-C cells [2]) of 500 nM.
With CCOC(=O)c1c[nH]c(C=C2C(=O)Nc3ccccc32)c1C [SU5463] the IC50 (EGFR) was 23 µM and the IC50 (FLK-1 receptor; [3]) was 0.18 µM.
Cn1cccc1C=C1C(=O)Nc2ccccc21 [SU5464, 3-[(1-Methylpyrrol-2-yl)methylene]-2-indolinone] was tested, and the IC50 (EGFR) was 95 µM and the IC50 (FLK-1 receptor; [3]) was 20.3 µM.
For CCOC(=O)CCc1c(C=C2C(=O)Nc3ccccc32)[nH]c(C(=O)OCC)c1CC(=O)OCC [SU5465, 3-[(5-Ethoxycarbonyl-3-ethoxycarbonylethyl-4-ethoxylcarbonylmethylpyrrol-2-yl)methylene]-2-indolinone], the IC50 (EGFR) was 50 µM.
Work on O=C1Nc2ccccc2C1=Cc1ccc(N2CCCC2)cc1 [SU5466, 3-[4-(Pyrrolidin-1-yl)benzylidenyl]-2-indolinone] yielded an IC50 (EGFR) of 17 µM and an IC50 (FLK-1 receptor; [3]) of 1.6 µM.
Work on Cc1cnc(C=C2C(=O)Nc3ccccc32)[nH]1 [SU5468, 3-[(5-Methylimidazol-2-yl)methylene]-2-indolinone] yielded an IC50 (FLK-1 receptor; [3]) of 2.7 µM.
Molecule Cc1cnc(C=C2C(=O)Nc3ccccc32)s1 [SU5469, 3-[(5-Methylthiazol-2-yl)methylene]-2-indolinone] has an IC50 (EGFR) of 28 µM.
Molecule Cc1cc(C=C2C(=O)Nc3ccccc32)[nH]n1 [SU5472, 3-[(3-Methylpyrazol-5-yl)methylene]-2-indolinone] has an IC50 (FLK-1 receptor; [3]) of 8.7 µM.
With O=C1Nc2ccccc2C1=Cc1cnc[nH]1 [SU5473, 3-[(Imidazol-4-yl)methylene]-2-indolinone] the IC50 (EGFR) was 54 µM, the IC50 (HUV-EC-C cells [1]; Homo sapiens, HUVEC) was 14.1 µM and the IC50 (HUV-EC-C cells [2]; Homo sapiens, HUVEC) was 1200 nM. The IC50 (FLK-1 receptor; [3]) was 1.5 µM.
O=C1Nc2ccccc2C1=Cc1n[nH]cc1Cl [SU5474, 3-[(4-Chloropyrazol-3-yl)methylene]-2-indolinone] showed an IC50 (FLK-1 receptor; [3]) of 7.4 µM.
Work on O=C1Nc2ccccc2C1=Cc1c(Br)cnn1Cc1ccc(Cl)cc1 [SU5475, 3-[(4-Bromo-1-(4-chlorobenzyl)pyrazol-5-yl)methylene]-2-indolinone] yielded an IC50 (EGFR) of 48 µM.
Molecule CCc1c(C)[nH]c(C=C2C(=O)Nc3ccccc32)c1C [SU5477, 3-[(4-Ethyl-3,5-dimethylpyrrol-2-yl)methylene]-2-indolinone] has an IC50 (FLK-1 receptor; [3]) of 0.15 µM.
